Assay results reported in PMC5309242, “Substrate-Dependence of Competitive Nucleotide Pyrophosphatase/Phosphodiesterase1 (NPP1) Inhibitors” (Frontiers in Pharmacology, 2017).
Like-named read-outs stand apart in the source and are kept apart here. Marks after values point to notes of the source that are not given here.

Columns and labels:
human NPP1 [1] = target: T1, human NPP1 (Homo sapiens, UniProt P22413); assay: Inhibition constants and mechanism of inhibition (Hanes-Woolf plots) compared across all investigated substrates; type: biochemical; settings: for Inhibition type: Hanes-Woolf plots, same type vs. all three substrates (ATP, p-Nph-5′-TMP, p-Nph-5′-AMP)
T1 construct: Human recombinant soluble NPP1 (Val191—Leu591) expressed in murine myeloma NS0 cells; His-tag (N); purchased R&D Systems GmbH (Wiesbaden, Germany); host or cells: murine myeloma NS0 cells
T1 sequence (P22413 191-591): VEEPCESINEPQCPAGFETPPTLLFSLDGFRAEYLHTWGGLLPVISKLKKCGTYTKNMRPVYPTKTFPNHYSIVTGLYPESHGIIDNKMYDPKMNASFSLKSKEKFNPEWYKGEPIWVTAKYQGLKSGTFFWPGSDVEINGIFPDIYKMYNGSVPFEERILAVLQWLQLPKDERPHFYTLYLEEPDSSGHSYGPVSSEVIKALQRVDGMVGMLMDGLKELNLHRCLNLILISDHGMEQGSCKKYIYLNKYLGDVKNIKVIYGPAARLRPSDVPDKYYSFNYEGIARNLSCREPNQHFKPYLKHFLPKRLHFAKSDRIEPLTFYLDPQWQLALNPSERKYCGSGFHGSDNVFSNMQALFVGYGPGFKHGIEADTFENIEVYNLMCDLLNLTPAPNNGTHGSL

human NPP1 [2] = target: T1, human NPP1; assay: NPP1 inhibition vs. natural substrate ATP (CE, AMP quantified by UV at 260 nm); type: biochemical
human NPP1 [3] = target: T1, human NPP1; assay: NPP1 inhibition vs. artificial substrate p-Nph-5′-TMP (p-nitrophenolate at 400 nm); type: biochemical
human NPP1 [4] = target: T1, human NPP1; assay: NPP1 inhibition vs. new artificial substrate p-Nph-5′-AMP (p-nitrophenolate at 400 nm); type: biochemical
human NPP1 [5] = target: T1, human NPP1; set-up: method as in Namasivayam et al., 2017; settings: substrate of NPP1; ref Namasivayam et al., 2017; cited from earlier work
human NPP1 [6] = target: T1, human NPP1; set-up: method as in Chang et al., 2014; settings: more potent vs. p-Nph-5′-TMP than vs. ATP; ref Chang et al., 2014; cited from earlier work
NPP1 = settings: cited from earlier work; for Ki: vs. ATP as a substrate, ref Iqbal et al., 2008
human NPP1 [7] = target: T1, human NPP1; set-up: method as in Lee and Müller, 2014; settings: ref Lee and Müller, 2014; cited from earlier work
human NPP1 [8] = target: T1, human NPP1; assay: Enzyme kinetic parameters of NPP1 substrates; type: biochemical; settings: for kcat: substrate of human NPP1, pH 9.0, 37°C
Protocol: (§1) Enzyme kinetic parameters were measured for p-Nph-5′-TMP and p-Nph-5′-AMP, both being artificial substrates of human NPP1. Solutions with different concentrations of both substrates (ranging from 1.0 to 500 μM) were prepared in 10 mM CHES buffer (in mM: 1 MgCl2, 2 CaCl2, 10 CHES, pH 9.0) and added in a final volume of 100 μl to 96-well-plates. The enzyme reactions were initiated by the addition of 20 ng of human NPP1 (for p-Nph-5′-TMP), or 75 ng of human NPP1 (for p-Nph-5′-AMP). The mixture was incubated at 37°C for 15 min (p-Nph-5′-TMP), or 30 min (for p-Nph-5′-AMP), respectively, and subsequently terminated by the addition of 20 μl of 1.0 N aqueous NaOH solution. The amounts of p-nitrophenolate liberated were measured at 400 nm. Each analysis was repeated twice in three separate experiments.

human NPP1 [9] = target: T1, human NPP1; settings: read-out: Ki, ATP; substrate ATP; mean ± SEM; ref Lee et al., 2015; cited from earlier work
[10] = substrate: Cc1cn([C@H]2C[C@H](O)[C@@H](COP(=O)(O)Oc3ccc([N+](=O)[O-])cc3)O2)c(=O)[nH]c1=O; assay: Enzyme kinetic parameters of NPP1 substrates; type: biochemical; settings: other: substrate of human NPP1, pH 9.0, 37°C
Protocol: as §1

[11] = substrate: Nc1ncnc2c1ncn2[C@@H]1O[C@H](COP(=O)(O)Oc2ccc([N+](=O)[O-])cc2)[C@@H](O)[C@H]1O; assay: Enzyme kinetic parameters of NPP1 substrates; type: biochemical; settings: other: substrate of human NPP1, pH 9.0, 37°C
Protocol: as §1

[12] = substrate p-Nph-5′-TMP, mean ± SD of three independent experiments, read-out: Ki ± SD, p-Nph-5′-TMP
[13] = substrate p-Nph-5′-AMP, mean ± SD of three independent experiments, read-out: Ki ± SD, p-Nph-5′-AMP

## CSc1nc(N)c2ncn([C@@H]3O[C@H](COP(=O)(O)OP(=O)(O)O)[C@@H](O)[C@H]3O)c2n1 [2-MeSADP, 2-methylthio-adenosine 5′-diphosphate]
Human NPP1 [1]
  Inhibition type: Competitive
Human NPP1 [2]
  Ki: 32.8 ± 7 µM
Human NPP1 [3]; [12]
  Ki: 2.18 ± 0.29 µM
Human NPP1 [4]; [13]
  Ki: 35.4 ± 6.4 µM

## CSc1nc(N)c2ncn([C@@H]3O[C@H](COP(=O)(O)OP(=O)(O)OP(=O)(O)O)[C@@H](O)[C@H]3O)c2n1 [2-MeSATP, 2-methylthio-adenosine 5′-triphosphate]
Human NPP1 [1]
  Inhibition type: Competitive
Human NPP1 [2]
  Ki: 25.3 ± 5.9 µM
Human NPP1 [3]; [12]
  Ki: 4.47 ± 0.66 µM
Human NPP1 [4]; [13]
  Ki: 39.9 ± 6.9 µM

## Nc1ncnc2c1ncn2[C@@H]1O[C@H](COP(=O)(O)OP(=O)(O)OP(=O)(O)O)[C@@H](O)[C@H]1O [ATP, adenosine 5′-triphosphate]
Human NPP1 [5]
  kcat: 5.51 s⁻¹

## COc1ccc(NC(=O)CSc2nc3c(N)ncnc3[nH]2)cc1OC [PZB08513136A, 2-(6-Amino-9H-purin-8-ylthio)-N-(3,4-dimethoxyphenyl)acetamide]
Human NPP1 [1]
  Inhibition type: Competitive
Human NPP1 [6]
  fold difference in potency, p-Nph-5′-TMP vs. ATP as substrate: more than 100 fold
Human NPP1 [4]; [13]
  Ki: 14.9 ± 0.8 µM

## COc1cc2ncnc(N3CCC(CCNS(N)(=O)=O)CC3)c2cc1OC [SAR 03004, N-[2-[1-(6,7-Dimethoxyquinazolin-4-yl)piperidin-4-yl]ethyl]sulfuric diamide]
Human NPP1 [1]
  Inhibition type: Competitive
NPP1; ATP as a substrate, ref Patel et al., 2009
  IC50: […]

## Nc1ncnc2c1ncn2[C@@H](C=O)O[C@@H](C=O)COP(=O)(O)OP(=O)(O)O [dialADP, Adenosine 5′-diphosphate-2′,3′-dialdehyde]
Human NPP1 [1]
  Ki: ~5 µM
  Inhibition type: Non-competitive
Human NPP1 [2]
  Ki: 5.62 ± 1.23 µM
Human NPP1 [3]; [12]
  Ki: 5.03 ± 0.15 µM
Human NPP1 [4]; [13]
  Ki: 5.09 ± 1.72 µM
Human NPP1 [7]
  manner of NPP1 inhibition: non-competitive

## Nc1ncnc2c1ncn2[C@@H](C=O)O[C@@H](C=O)COP(=O)(O)OP(=O)(O)OP(=O)(O)O [dialATP, adenosine 5′-triphosphate-2′,3′-dialdehyde]
Human NPP1 [1]
  Ki: ~5 µM
  Inhibition type: Un-competitive
Human NPP1 [2]; αKi-value (un-competitive inhibitor), substrate ATP, mean ± SD of three independent experiments
  αKi ± SD, ATP: 6.82 ± 1.01^b μM
Human NPP1 [3]; αKi-value (un-competitive inhibitor), substrate p-Nph-5′-TMP, mean ± SD of three independent experiments
  αKi ± SD, p-Nph-5′-TMP: 4.09 ± 0.41^b μM
Human NPP1 [4]; αKi-value (un-competitive inhibitor), substrate p-Nph-5′-AMP, mean ± SD of three independent experiments
  αKi ± SD, p-Nph-5′-AMP: 5.08 ± 0.33^b μM
Human NPP1 [7]
  manner of NPP1 inhibition: uncompetitive

## Nc1ncnc2c1ncn2[C@@H]1O[C@H](COP(=O)(O)Oc2ccc([N+](=O)[O-])cc2)[C@@H](O)[C@H]1O [p-Nph-5′-AMP, p-nitrophenyl 5′-adenosine monophosphate]
Human NPP1 [8]; compared to natural substrate ATP
  Km-value fold higher than that for ATP: > 20 fold
Human NPP1 [8]
  kcat: 2.51 s⁻¹

## Cc1cn([C@H]2C[C@H](O)[C@@H](COP(=O)(O)Oc3ccc([N+](=O)[O-])cc3)O2)c(=O)[nH]c1=O [p-Nph-5′-TMP, p-Nitrophenyl 5′-thymidine monophosphate]
Human NPP1 [8]; compared to p-Nph-5′-AMP
  kcat-value fold higher than that for p-Nph-5′-AMP: ~10 fold
Human NPP1 [8]
  kcat: 22.3 s⁻¹

## Nc1c(S(=O)(=O)O)cc(Nc2ccc(Nc3nc(Cl)nc(Nc4cccc(S(=O)(=O)O)c4)n3)c(S(=O)(=O)O)c2)c2c1C(=O)c1ccccc1C2=O [reactive blue 2]
Human NPP1 [1]
  Inhibition type: Non-competitive
NPP1
  Ki: 0.52 µM
Human NPP1 [2]
  Ki: 0.141 ± 0.031 µM
Human NPP1 [3]
  Ki: 0.198 ± 0.034 µM
Human NPP1 [4]
  Ki: 0.176 ± 0.025 µM

## Cc1ccc(C(=O)Nc2ccc(S(=O)(=O)O)c3cc(S(=O)(=O)O)cc(S(=O)(=O)O)c23)cc1NC(=O)c1cccc(NC(=O)Nc2cccc(C(=O)Nc3cc(C(=O)Nc4ccc(S(=O)(=O)O)c5cc(S(=O)(=O)O)cc(S(=O)(=O)O)c45)ccc3C)c2)c1 [suramin]
NPP1
  Ki: 0.26 µM

## Nc1ncnc2c1ncn2[C@@H]1O[C@H](COP(=O)(O)CP(=O)(O)O)[C@@H](O)[C@H]1O [α,β-metADP, adenosine 5′-(α,β-methylene)diphosphate]
Human NPP1 [1]
  Inhibition type: Competitive
Human NPP1 [2]
  Ki: 16.5 ± 3.1 µM
Human NPP1 [3]
  Ki: 1.28 ± 0.16 µM
Human NPP1 [4]
  Ki: 25.8 ± 4.1 µM

## Nc1ncnc2c1ncn2[C@@H]1O[C@H](COP(=O)(O)CP(=O)(O)OP(=O)(O)O)[C@@H](O)[C@H]1O [α,β-metATP, adenosine 5′-(α,β-methylene)triphosphate]
Human NPP1 [1]
  Inhibition type: Competitive

## [TiW11CoO40]^8−
Human NPP1 [1]
  Inhibition type: Non-competitive
Human NPP1 [9]
  Ki: 0.00146 ± 1e-05 µM
Human NPP1 [3]; [12]
  Ki: 0.00199 ± 0.00033 µM
Human NPP1 [4]; [13]
  Ki: 0.00174 ± 0.00099 µM

B1: human NPP1 (Homo sapiens) (protein)
chain: T1 sequence (P22413 191-591)
notes: Human recombinant soluble NPP1 (Val191—Leu591) expressed in murine myeloma NS0 cells; His-tag (N); purchased R&D Systems GmbH (Wiesbaden, Germany); host or cells: murine myeloma NS0 cells
[10]
  Km: 222 µM
[11]
  Km: 188 µM
  kcat: 2.51 s⁻¹
  kcat/Km: 13400 M⁻¹ s⁻¹
